Data from patent US20260365663A1, “EMOPAMIL-BINDING PROTEIN INHIBITORS AND USES THEREOF” (BIOGEN MA INC., priority 2022, published 2026).

Target: T1, EBP (Homo sapiens, UniProt Q15125)
T1 construct: HEK293T cells were utilized as the source of EBP enzyme; endogenous in cells; host or cells: HEK293T
Test: EBP Functional Assay (EBP immunoaffinity LC-MS assay)
Type: biochemical
Conditions: not given
Method: The EBP immunoaffinity (IA) LC-MS assay measures the potency of small molecule inhibitors of EBP by quantifying their concentration-dependent changes in the enzyme's substrate and product using liquid chromatography atmospheric pressure chemical ionization multiple reaction monitoring mass spectrometry (LC-APCI MRM MS). HEK293T cells were utilized as the source of EBP enzyme. The enzyme was incubated with the small molecule inhibitors at variable concentrations for 30 min. Deuterated form of EBP substrate, zymosterol-d5 (Avanti Polar Lipids, Cat #700068P-1 mg), was then added and the plate was incubated at 37 °C for 4 h. Finally, the sterol isomers were extracted and injected to LC-APCI MRM MS. MRM transition used for the quantification for both zymosterol and dihydrolathosterol (substrate and product of EBP enzymatic reaction, respectively) is 372.3-203.2, CE 30 and DP 80 in positive ion mode. Percent conversion of the zymosterol-d5 to dehydrolathosterol-d5 was used to derive IC50 curves. Tasin-1 (1′-[(4-Methoxyphenyl)sulfonyl]-4-methyl-1,4′-bipiperidine, CAS 792927-06-1) was used as the reference small molecule inhibitor.
Percent conversion versus the compound concentration data were fit to the following 4-parameter logistic model to generate IC50 curves: […]

T1 sequence (Q15125 whole entry): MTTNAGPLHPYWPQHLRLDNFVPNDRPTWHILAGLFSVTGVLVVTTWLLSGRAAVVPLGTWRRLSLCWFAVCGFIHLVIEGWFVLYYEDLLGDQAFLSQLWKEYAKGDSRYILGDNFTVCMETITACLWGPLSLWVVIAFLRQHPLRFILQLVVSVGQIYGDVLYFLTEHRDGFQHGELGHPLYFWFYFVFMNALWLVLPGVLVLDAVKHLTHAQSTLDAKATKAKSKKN

IC50 | SMILES
100 to 500 nM | Cc1cc(C(F)(F)F)ncc1S(=O)(=O)N1CC2(CCC(N3CCOCC3)C2)C1 (centres unmarked) [Example 41, 4-(2-((4-Methyl-6-(trifluoromethyl)pyridin-3-yl)sulfonyl)-2-azaspiro[3.4]octan-6-yl)morpholine]
< 100 nM | COc1ccc(S(=O)(=O)N2CC3(CC(N4CCC(C)CC4)CO3)C2)c(C)n1 (centres unmarked) [Example 56, 2-((6-Methoxy-2-methylpyridin-3-yl)sulfonyl)-7-(4-methylpiperidin-1-yl)-5-oxa-2-azaspiro[3.4]octane]
500 to 3000 nM | O=S(=O)(c1ccc(OC(F)F)cc1)N1CC2(CCC(N3CCOCC3)C2)C1 (centres unmarked) [Example 44, 4-(2-((4-(Difluoromethoxy)phenyl)sulfonyl)-2-azaspiro[3.4]octan-6-yl)morpholine]
< 100 nM | Cc1nc(C(F)(F)F)ncc1S(=O)(=O)N1CC2(CC(N(C)C3CCOCC3)C2)C1 [Example 80, N-methyl-2-((4-methyl-2-(trifluoromethyl)pyrimidin-5-yl)sulfonyl)-N-(tetrahydro-2H-pyran-4-yl)-2-azaspiro[3.3]heptan-6-amine]

More lines, now with the values behind:

SMILES | IC50
COc1ncc(C)cc1S(=O)(=O)N1CC2(CC(N3CC4(COC4)C3)CO2)C1 (centres unmarked) [Example 22, 2-((2-Methoxy-5-methylpyridin-3-yl)sulfonyl)-7-(2-oxa-6-azaspiro[3.3]heptan-6-yl)-5-oxa-2-azaspiro[3.4]octane] | 500 to 3000 nM
Cc1nc(C(F)(F)F)ccc1S(=O)(=O)N1CC2(CC(N3CC4(CCO4)C3)C2)C1 [Example 6, 6-(2-((2-Methyl-6-(trifluoromethyl)pyridin-3-yl)sulfonyl)-2-azaspiro[3.3]heptan-6-yl)-1-oxa-6-azaspiro[3.3]heptane] | 500 to 3000 nM
Cn1nc(C(F)(F)F)cc1S(=O)(=O)N1CC2(CC(N3CC4(COC4)C3)C2)C1 [Example 14, 6-(2-((1-Methyl-3-(trifluoromethyl)-1H-pyrazol-5-yl)sulfonyl)-2-azaspiro[3.3]heptan-6-yl)-2-oxa-6-azaspiro[3.3]heptane] | 500 to 3000 nM
Cc1nc(C(F)(F)F)ccc1S(=O)(=O)N1CC2(CC(N3CC4(COC4)C3)C2)C1 [Example 4, 6-(2-((2-Methyl-6-(trifluoromethyl)pyridin-3-yl)sulfonyl)-2-azaspiro[3.3]heptan-6-yl)-2-oxa-6-azaspiro[3.3]heptane] | 500 to 3000 nM
CC(C)c1cc(S(=O)(=O)N2CC3(CC(N4CCOCC4)C3)C2)n(C)n1 [Example 19, 4-(2-((3-Isopropyl-1-methyl-1H-pyrazol-5-yl)sulfonyl)-2-azaspiro[3.3]heptan-6-yl)morpholine] | < 100 nM

Same assay, conditions: HEK293T cells as source of EBP enzyme; zymosterol-d5 substrate; inhibitor 30 min, then 37 °C for 4 h; percent conversion to dehydrolathosterol-d5 by LC-APCI MRM MS; read-out: EBP Functional Assay

IC50 | SMILES
< 100 nM | Cc1nc(C(F)(F)F)ncc1S(=O)(=O)N1CC2(CC(N(C)C3CC4(COC4)C3)C2)C1 (centres unmarked) [Example 82, N-methyl-2-((4-methyl-2-(trifluoromethyl)pyrimidin-5-yl)sulfonyl)-N-(2-oxaspiro[3.3]heptan-6-yl)-2-azaspiro[3.3]heptan-6-amine]
< 100 nM | Cc1nc(C(C)(F)F)ccc1S(=O)(=O)N1CC2(CC(N(C)C3CCOCC3)C2)C1 [Example 72, 2-((6-(1,1-difluoroethyl)-2-methylpyridin-3-yl)sulfonyl)-N-methyl-N-(tetrahydro-2H-pyran-4-yl)-2-azaspiro[3.3]heptan-6-amine]
100 to 500 nM | COc1cc(S(=O)(=O)N2CC3(CCC(N4CCOCC4)C3)C2)n(C)n1 (centres unmarked) [Example 34, 4-(2-((3-Methoxy-1-methyl-1H-pyrazol-5-yl)sulfonyl)-2-azaspiro[3.4]octan-6-yl)morpholine]
500 to 3000 nM | Cc1nc(C(C)(F)F)ccc1S(=O)(=O)N1CC2(CC(NC3COC3)C2)C1 [Example 69, 2-((6-(1,1-difluoroethyl)-2-methylpyridin-3-yl)sulfonyl)-N-(oxetan-3-yl)-2-azaspiro[3.3]heptan-6-amine]
< 100 nM | Cc1nc(Cl)ccc1S(=O)(=O)N1CC2(CC[C@@H](N3CCOCC3)C2)C1 (single isomer, unassigned) [Example 64]
< 100 nM | Cc1nc(C(C)(F)F)ccc1S(=O)(=O)N1CC2(CC(N(C)C3CC4(COC4)C3)C2)C1 (centres unmarked) [Example 74, 2-((6-(1,1-difluoroethyl)-2-methylpyridin-3-yl)sulfonyl)-N-methyl-N-(2-oxaspiro[3.3]heptan-6-yl)-2-azaspiro[3.3]heptan-6-amine]
< 100 nM | Cc1cc(C)c(S(=O)(=O)N2CC3(CCC(N4CCOCC4)C3)C2)c(C)c1 (centres unmarked) [Example 43, 4-(2-(Mesitylsulfonyl)-2-azaspiro[3.4]octan-6-yl)morpholine]

Further lines, the compound ahead of its results:

SMILES | IC50
COc1ncc(C)cc1S(=O)(=O)N1CC2(CC(N3CC(OC)C3)CO2)C1 (centres unmarked) [Example 23, 2-((2-Methoxy-5-methylpyridin-3-yl)sulfonyl)-7-(3-methoxyazetidin-1-yl)-5-oxa-2-azaspiro[3.4]octane] | 500 to 3000 nM
Cc1nc(C(F)(F)F)ccc1S(=O)(=O)N1CC2(CC(NC3CCOCC3)C2)C1 [Example 3, 2-((2-Methyl-6-(trifluoromethyl)pyridin-3-yl)sulfonyl)-N-(tetrahydro-2H-pyran-4-yl)-2-azaspiro[3.3]heptan-6-amine] | 100 to 500 nM
N#Cc1cc(F)cc(S(=O)(=O)N2CC3(CC(N4CC5(COC5)C4)CO3)C2)c1 (centres unmarked) [Example 28, 3-((7-(2-Oxa-6-azaspiro[3.3]heptan-6-yl)-5-oxa-2-azaspiro[3.4]octan-2-yl)sulfonyl)-5-fluorobenzonitrile] | 500 to 3000 nM
N#Cc1ccc(F)c(S(=O)(=O)N2CC3(CC(NC4CCOCC4)CO3)C2)c1 (centres unmarked) [Example 27, 4-Fluoro-3-((7-((tetrahydro-2H-pyran-4-yl)amino)-5-oxa-2-azaspiro[3.4]octan-2-yl)sulfonyl)benzonitrile] | 500 to 3000 nM
Cc1nc(C(F)(F)F)ccc1S(=O)(=O)N1CC2(CC(NC3COC3)C2)C1 [Example 8, 2-((2-Methyl-6-(trifluoromethyl)pyridin-3-yl)sulfonyl)-N-(oxetan-3-yl)-2-azaspiro[3.3]heptan-6-amine] | 500 to 3000 nM
COc1ncc(C)cc1S(=O)(=O)N1CC2(CC(NC3CCOCC3)CO2)C1 (centres unmarked) [Example 21, 2-((2-Methoxy-5-methylpyridin-3-yl)sulfonyl)-N-(tetrahydro-2H-pyran-4-yl)-5-oxa-2-azaspiro[3.4]octan-7-amine] | 500 to 3000 nM
Cc1nc(C(F)(F)F)ccc1S(=O)(=O)N1CC2(CC(N3CCOCC3)C2)C1 [Example 5, 4-(2-((2-Methyl-6-(trifluoromethyl)pyridin-3-yl)sulfonyl)-2-azaspiro[3.3]heptan-6-yl)morpholine] | 100 to 500 nM
Cn1nc(C(F)(F)F)cc1S(=O)(=O)N1CC2(CC(NC3COC3)C2)C1 [Example 13, 2-((1-Methyl-3-(trifluoromethyl)-1H-pyrazol-5-yl)sulfonyl)-N-(oxetan-3-yl)-2-azaspiro[3.3]heptan-6-amine] | 500 to 3000 nM
Cc1nc(C(F)(F)F)ccc1S(=O)(=O)N1CC2(CC(NC3(C4CCOCC4)CC3)C2)C1 [Example 7, 2-((2-Methyl-6-(trifluoromethyl)pyridin-3-yl)sulfonyl)-N-(1-(tetrahydro-2H-pyran-4-yl)cyclopropyl)-2-azaspiro[3.3]heptan-6-amine] | 100 to 500 nM
COc1ncc(C)cc1S(=O)(=O)N1CC2(CC(NC3CCC(F)(F)CC3)CO2)C1 (centres unmarked) [Example 24, N-(4,4-Difluorocyclohexyl)-2-((2-methoxy-5-methylpyridin-3-yl)sulfonyl)-5-oxa-2-azaspiro[3.4]octan-7-amine] | 100 to 500 nM
